Source: PMC4735555, “Crystal structure of the N-myristoylated lipopeptide-bound MHC class I complex” (Nature Communications, 2016)

Legend:
[1] = tested on: Mamu-B*098; experiment: Biolayer interferometry binding to β2m-linked Mamu-B*098; parameters: species or system rhesus macaque; conditions: Octet RED96; biotinylated β2m-linked Mamu-B*098; lipopeptide 10 μM, 45 min, then 30 min without; 20 mM Tris-HCl pH 7.5, 150 mM NaCl, 2% DMSO; 30 °C; representative of three independent experiments
From the text: Single-chain MHC proteins in which β2m was linked via a Gly-Ser linker (GGGGSGGSGSGGGSS) to the ectodomain of either Mamu-B*098 or Mamu-A*02, followed by a biotinylation sequence peptide (LHHILDAQKMVWNHR), were also expressed in E. coli and were purified in a similar manner to the trimer complex of Mamu-B*098, β2m and C14nef5. The β2m-linked Mamu-B*098 protein was refolded without C14nef5, whereas the β2m-linked Mamu-A*02 protein was refolded in the presence of the YY9 peptide (YTSGPGIRY). These recombinant proteins (3 mg) were biotinylated by being incubated for 12 h at 20 °C with 2 μg of BirA enzyme (Sigma-Aldrich, St Louis, MO) in a biotinylation buffer containing 100 mM Tris-HCl pH 8.0, 5 mM MgCl2, 4.5 mM ATP and 4 mM D-biotin, and were purified by size-exclusion chromatography.
The binding of ligands to MHC class I molecules was analysed using the Octet RED96 system equipped with a streptavidin-conjugated biosensor (Pall ForteBio, Menlo Park, CA) according to the manufacturer's instructions. Biotinylated β2m-linked Mamu-B*098 and Mamu-A*02 proteins were immobilized on the sensor tip surface with a signal magnitude of ∼5.0 nm. […] After reference subtraction, binding signals were analysed using the BIAevaluation 3.1 software. […]

[2] = tested on: Mamu-B*098; experiment: X-ray crystal structure of the Mamu-B*098:C14nef5 complex; format: binding, rhesus macaque; conditions: crystal structure at 1.76 Å, Mamu-B*098 with Cys167 mutated to Ser, rhesus β2m; PDB 4ZFZ
Method: Recombinant proteins were prepared as described previously with some modifications. Briefly, DNA constructs encoding the ectodomain of Mamu-B*098 (from Gly1 to Pro276 with the unpaired Cys167 mutated to Ser and a Met-Ala added to the N terminus) and rhesus β2m (from Ile1 to Met99 with a Met-Ala added to the N terminus) were synthesized and cloned into pLM1. The expression plasmids were introduced into the E. coli Rosetta 2 (DE3) pLysS strain (Novagen, Madison, WI) and colonies were inoculated into a Terrific Broth supplemented with 50 μg ml^−1 ampicillin. Isopropyl-β-D-thiogalactoside was added to the culture at a final concentration of 0.5 mM when the OD600 value of the culture reached 0.5. After an additional 6-h culture, bacteria were harvested and lysed in a buffer containing 50 mM Tris-HCl pH 8.0, 1 mM EDTA, 0.1% NaN3, 10 mM dithiothreitol (DTT), 100 mM NaCl, 1% Triton X-100, 1% deoxycholate and 5 mM MgCl2, followed by a treatment with DNase I. After 6 h of stirring, the samples were centrifuged and the pellets were washed twice with a wash buffer containing 50 mM Tris-HCl pH 8.0, 1 mM EDTA, 0.1% NaN3, 1 mM DTT, 100 mM NaCl and 0.5% Triton X-100, and once with a rinse buffer containing 50 mM Tris-HCl pH 8.0, 1 mM EDTA, 0.1% NaN3 and 1 mM DTT. […]

## C14-Gly-Gly-Ala-Ile-Ser [C14nef5, N-myristoylated 5-mer peptide (C14-Gly-Gly-Ala-Ile-Ser; C14nef5) derived from the SIV Nef protein]
[1]
  physical interaction with immobilized Mamu-B*098 (biolayer interferometry): demonstrated for Mamu-B*098
[2]
  electron density in the Ag-binding groove of Mamu-B*098: Continuous electron density corresponding to C14nef5 was observed in the Ag-binding groove
